In PubChem BioAssay AID2060338 (Molecular Pharmacology Branch, DTP, NCI, 2025):
Where “and” joins values, the source holds several entries; their conditions need not be identical. Identical values can stand only once.

System: 556581-035-R-J1-PDC spheroids with HUVEC/MSC, viability
Test: Anticancer human tumor 556581-035-R-J1-PDC patient-derived ovarian carcinoma cell line growth inhibition [IpAb]
Details: for viability, T/C: stronger effect = lower value
Procedure, shortened: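 Combinations with ipatasertib or abemaciclib were tested on tumour spheroids holding HUVEC (25%) and MSC (15%) alongside 60% malignant cells. Top concentration was at or near clinical Cmax (10 microM if undefined), descending in half-log steps.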

[1] = curve of first compound, second compound 0.1 µM
[2] = curve of first compound, second compound 0.316 µM
[3] = curve of first compound, second compound 1 µM
[4] = curve of first compound, second compound 3.16 µM
[5] = curve of first compound, second compound 10 µM
[6] = second compound 0.1 µM, first compound 0.0316 µM
[7] = second compound 0.1 µM, first compound 0.1 µM
[8] = second compound 0.316 µM, first compound 0.0316 µM
[9] = second compound 0.316 µM, first compound 0.1 µM
[10] = second compound 1 µM, first compound 0.0316 µM
[11] = second compound 1 µM, first compound 0.1 µM
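Further: spheroids exposed to compounds for 7 days before readout.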

Cc1nc(NC(=O)N2CCCC2C(N)=O)sc1-c1ccnc(C(C)(C)C(F)(F)F)c1 (stereo unspecified) + CC(C)NCC(C(=O)N1CCN(c2ncnc3c2C(C)CC3O)CC1)c1ccc(Cl)cc1
IC50 [1]: 0.504 µM | IC50 [2]: 0.206 µM | IC50 [3]: 0.0484 µM | IC50 [4]: < 0.0316 µM | IC50 [5]: < 0.0316 µM | viability, T/C [6]: 81.8% | viability, T/C [7]: 68.6% | viability, T/C (second compound 0.1 µM, first compound 0.316 µM): 56.8% | viability, T/C (second compound 0.1 µM, first compound 1 µM): 38.8% | viability, T/C (second compound 0.1 µM, first compound 3.16 µM): 31% | viability, T/C (second compound 0.1 µM, first compound 10 µM): 11.3% | viability, T/C [8]: 62% | viability, T/C [9]: 57.6% | viability, T/C (second compound 0.316 µM, first compound 0.316 µM): 40.3% | viability, T/C (second compound 0.316 µM, first compound 1 µM): 39.2% | viability, T/C (second compound 0.316 µM, first compound 3.16 µM): 33% | viability, T/C (second compound 0.316 µM, first compound 10 µM): 11.3% | viability, T/C [10]: 48.5% | viability, T/C [11]: 53.8% | viability, T/C (second compound 1 µM, first compound 0.316 µM): 39.8% | viability, T/C (second compound 1 µM, first compound 1 µM): 36.2% | viability, T/C (second compound 1 µM, first compound 3.16 µM): 27.4% | viability, T/C (second compound 1 µM, first compound 10 µM): 16.2% | viability, T/C (second compound 3.16 µM, first compound 0.0316 µM): 41.8% | viability, T/C (second compound 3.16 µM, first compound 0.1 µM): 43.2% | viability, T/C (second compound 3.16 µM, first compound 0.316 µM): 43.5% | viability, T/C (second compound 3.16 µM, first compound 1 µM): 35.6% | viability, T/C (second compound 3.16 µM, first compound 3.16 µM): 24.6% | viability, T/C (second compound 3.16 µM, first compound 10 µM): 10.7% | viability, T/C (second compound 10 µM, first compound 0.0316 µM): 38.6% | viability, T/C (second compound 10 µM, first compound 0.1 µM): 42.4% | viability, T/C (second compound 10 µM, first compound 0.316 µM): 35.7% | viability, T/C (second compound 10 µM, first compound 1 µM): 27.2% | viability, T/C (second compound 10 µM, first compound 3.16 µM): 22.9% | viability, T/C (second compound 10 µM, first compound 10 µM): 4.11%

CC(C)(C)c1cnc(CSc2cnc(NC(=O)C3CCNCC3)s2)o1
viability, T/C (compound 0.00949 µM): 104% and 105% | viability, T/C (compound 0.03 µM): 116% and 106% | viability, T/C (compound 0.0949 µM): 62.5% and 81% | viability, T/C (compound 0.3 µM): 2.65% and 4.27% | viability, T/C (compound 0.949 µM): 3.19% and 3.08% | viability, T/C (compound 3 µM): 4.63% and 2.13% | IC50 (curve of compound): 0.121 µM and 0.151 µM

CCCS(=O)(=O)Nc1ccc(F)c(C(=O)c2c[nH]c3ncc(-c4ccc(Cl)cc4)cc23)c1F
viability, T/C (compound 0.0316 µM): 93.4% and 104% | viability, T/C (compound 0.1 µM): 103% and 99.8% | viability, T/C (compound 0.316 µM): 105% and 108% | viability, T/C (compound 1 µM): 92.9% and 98.8% | viability, T/C (compound 3.16 µM): 110% and 104% | viability, T/C (compound 10 µM): 75.7% and 78.5% | IC50 (curve of compound): > 10 µM

CC(=O)c1c(C)c2cnc(Nc3ccc(N4CCNCC4)cn3)nc2n(C2CCCC2)c1=O + CC(C)NCC(C(=O)N1CCN(c2ncnc3c2C(C)CC3O)CC1)c1ccc(Cl)cc1
IC50 [1]: > 0.3 µM | IC50 [2]: > 0.3 µM | IC50 [3]: > 0.3 µM | IC50 [4]: > 0.3 µM | IC50 [5]: < 0.000949 µM | viability, T/C (second compound 0.1 µM, first compound 0.000949 µM): 98.2% | viability, T/C (second compound 0.1 µM, first compound 0.003 µM): 115% | viability, T/C (second compound 0.1 µM, first compound 0.00949 µM): 95.5% | viability, T/C (second compound 0.1 µM, first compound 0.03 µM): 96% | viability, T/C (second compound 0.1 µM, first compound 0.0949 µM): 99% | viability, T/C (second compound 0.1 µM, first compound 0.3 µM): 87.2% | viability, T/C (second compound 0.316 µM, first compound 0.000949 µM): 77.8% | viability, T/C (second compound 0.316 µM, first compound 0.003 µM): 90.4% | viability, T/C (second compound 0.316 µM, first compound 0.00949 µM): 85.9% | viability, T/C (second compound 0.316 µM, first compound 0.03 µM): 76% | viability, T/C (second compound 0.316 µM, first compound 0.0949 µM): 85.3% | viability, T/C (second compound 0.316 µM, first compound 0.3 µM): 82.4% | viability, T/C (second compound 1 µM, first compound 0.000949 µM): 59.9% | viability, T/C (second compound 1 µM, first compound 0.003 µM): 65.7% | viability, T/C (second compound 1 µM, first compound 0.00949 µM): 68.1% | viability, T/C (second compound 1 µM, first compound 0.03 µM): 56.4% | viability, T/C (second compound 1 µM, first compound 0.0949 µM): 65.3% | viability, T/C (second compound 1 µM, first compound 0.3 µM): 63.5% | viability, T/C (second compound 3.16 µM, first compound 0.000949 µM): 57.8% | viability, T/C (second compound 3.16 µM, first compound 0.003 µM): 61.7% | viability, T/C (second compound 3.16 µM, first compound 0.00949 µM): 49.9% | viability, T/C (second compound 3.16 µM, first compound 0.03 µM): 55.4% | viability, T/C (second compound 3.16 µM, first compound 0.0949 µM): 58.1% | viability, T/C (second compound 3.16 µM, first compound 0.3 µM): 58% | viability, T/C (second compound 10 µM, first compound 0.000949 µM): 47.9% | viability, T/C (second compound 10 µM, first compound 0.003 µM): 47.4% | viability, T/C (second compound 10 µM, first compound 0.00949 µM): 48.6% | viability, T/C (second compound 10 µM, first compound 0.03 µM): 49.6% | viability, T/C (second compound 10 µM, first compound 0.0949 µM): 45.8% | viability, T/C (second compound 10 µM, first compound 0.3 µM): 48.4%

CC(C)n1nc(-c2ccc3oc(N)nc3c2)c2c(N)ncnc21 + CCN1CCN(Cc2ccc(Nc3ncc(F)c(-c4cc(F)c5nc(C)n(C(C)C)c5c4)n3)nc2)CC1
IC50 (curve of first compound, second compound 0.01 µM): 0.0044 µM | IC50 (curve of first compound, second compound 0.0316 µM): 0.00708 µM | IC50 [1]: 0.00503 µM | IC50 [2]: 0.00649 µM | IC50 [3]: < 0.000316 µM | viability, T/C (second compound 0.01 µM, first compound 0.000316 µM): 108% | viability, T/C (second compound 0.01 µM, first compound 0.001 µM): 72.6% | viability, T/C (second compound 0.01 µM, first compound 0.00316 µM): 54.4% | viability, T/C (second compound 0.01 µM, first compound 0.01 µM): 44.2% | viability, T/C (second compound 0.01 µM, first compound 0.0316 µM): 26.4% | viability, T/C (second compound 0.01 µM, first compound 0.1 µM): 22.2% | viability, T/C (second compound 0.0316 µM, first compound 0.000316 µM): 86.4% | viability, T/C (second compound 0.0316 µM, first compound 0.001 µM): 78.7% | viability, T/C (second compound 0.0316 µM, first compound 0.00316 µM): 60.7% | viability, T/C (second compound 0.0316 µM, first compound 0.01 µM): 46.8% | viability, T/C (second compound 0.0316 µM, first compound 0.0316 µM): 27.5% | viability, T/C (second compound 0.0316 µM, first compound 0.1 µM): 19.7% | viability, T/C (second compound 0.1 µM, first compound 0.000316 µM): 89.6% | viability, T/C (second compound 0.1 µM, first compound 0.001 µM): 76.1% | viability, T/C (second compound 0.1 µM, first compound 0.00316 µM): 51.7% | viability, T/C (second compound 0.1 µM, first compound 0.01 µM): 45% | viability, T/C [6]: 26.4% | viability, T/C [7]: 20.2% | viability, T/C (second compound 0.316 µM, first compound 0.000316 µM): 80.1% | viability, T/C (second compound 0.316 µM, first compound 0.001 µM): 69.8% | viability, T/C (second compound 0.316 µM, first compound 0.00316 µM): 61.5% | viability, T/C (second compound 0.316 µM, first compound 0.01 µM): 44.2% | viability, T/C [8]: 28.7% | viability, T/C [9]: 21.6% | viability, T/C (second compound 1 µM, first compound 0.000316 µM): 41.9% | viability, T/C (second compound 1 µM, first compound 0.001 µM): 52.7% | viability, T/C (second compound 1 µM, first compound 0.00316 µM): 38.4% | viability, T/C (second compound 1 µM, first compound 0.01 µM): 31.9% | viability, T/C [10]: 28.4% | viability, T/C [11]: 23.1%

Cn1cnc2c(F)c(Nc3ccc(Br)cc3Cl)c(C(=O)NOCCO)cc21
viability, T/C (compound 0.00949 µM): 94.9% and 121% | viability, T/C (compound 0.03 µM): 95% and 99.7% | viability, T/C (compound 0.0949 µM): 92.9% and 109% | viability, T/C (compound 0.3 µM): 74.6% and 91.1% | viability, T/C (compound 0.949 µM): 45.2% and 43% | viability, T/C (compound 3 µM): 14.4% and 14% | IC50 (curve of compound): 0.779 µM and 0.805 µM
